Reference: US20070254891A1, “Crystalline forms of 4-(2-fluorophenyl)-6-methyl-2-(piperazin-1-yl)thieno[2,3-d]pyrimidine” (Dynogen Pharmaceuticals, Inc., priority 2006, published 2007)
Several values for one entry are separate records, joined by “and”; a condition that tells them apart may be missing. Equal values may be shown once.

What was measured:
[1] = tested on: irritation-induced reduction in bladder capacity; assay: Dilute Acetic Acid Model-Rats (filling cystometry); type: in vivo, rat; conditions: intraduodenal
Excerpt: The abdominal cavity was moistened with saline and closed by covering with a thin plastic sheet in order to maintain access to the bladder for emptying purposes. Fine silver or stainless steel wire electrodes were inserted into the external urethral sphincter (EUS) percutaneously for electromyography (EMG).
P<0.050 was considered significant.

[2] = tested on: reduction in bladder capacity seen following continuous infusion of dilute acetic acid; assay: Dilute Acetic Acid Model-Cats; type: in vivo, cat; conditions: 3 point dose response, 3.0, 10.0 or 30 mg/ml dosed by body weight; P<0.0103; individual significance at 30 mg/kg
Method: Six alpha-chloralose anesthetized (50-100 mg/kg) normal female cats (2,5-3.5 kg; Harlan) were utilized in this study.
Female cats (2.5-3.5 kg; Harlan) had their food removed the night before the study. The following morning, the cats were anesthetized with isoflurane and prepped for surgery using aseptic technique. Polyethylene catheters were surgically placed to permit the measurement of bladder pressure, urethral pressure, arterial pressure, respiratory rate as well as for the delivery of drugs. Fine wire electrodes were implanted alongside the external urethral anal sphincter. […] During control cystometry, saline was slowly infused into the bladder (0.5-1.0 ml/min) for 1 hour. The control cystometry was followed by 0.5% acetic acid in saline for the duration of the experiment.
Data was analyzed using a non-parametric One-Way ANOVA (Friedman Test) with the post-hoc Dunn's multiple comparison t test. P<0.05 was considered significant.

[3] = tested on: acetic acid-induced colonic hypersensitivity; assay: Visceromotor response to colorectal distension in acetic acid-sensitized rats
Method: The visceromotor behavioral response to colorectal distension was measured by counting the number of abdominal contractions recorded by a strain gauge sutured onto the abdominal musculature as described in Gunter et al., Physiol. […] A 5 cm latex balloon catheter inserted via the anal canal into the colon was used for colorectal distensions. Constant pressure tonic distensions were performed in a graded manner (15, 30 or 60 mmHg) and were maintained for a period of 10 min and the numbers of abdominal muscle contractions were recorded to measure the level of colonic sensation. A 10 min recovery was allowed between distensions.
J. Physiol. […] In the present study, a low concentration of acetic acid (1.5 ml, 0.6%) was administered intracolonically to sensitize the colon without causing histological damage to the colonic mucosa as described in previous studies (Gunter et al., supra).
Injection volume was 0.2 mL using 100% propylene glycol as the vehicle. Three consecutive colorectal distensions at 15, 30 or 60 mmHg applied at 10-min intervals were recorded. Visceromotor responses were evaluated as the number of abdominal muscle contractions recorded during the 10-min periods of colorectal distension.
Adult male rats were used in the study. […] Specifically, rats were anesthetized with Isoflurane (2%) and were instrumented with a strain gauge force transducer for recording of abdominal muscle contractions. A latex balloon and catheter were inserted 11 cm into the colon. The animals were allowed a 30-min period to completely recover from the anesthesia and were then subjected to intracolonic infusion of acetic acid (1.5 mL, 0.6%). An additional 30-min period was allowed for sensitization of the colon. […] The protocol for colorectal distension was initiated 30-min post drug administration. After a basal reading of the number of abdominal contractions with the balloon inserted but not distended, three consecutive 10-min lasting colorectal distensions at 15, 30, and 60 mmHg were applied at 10-min intervals. Colorectal sensitivity was evaluated by counting the number of reflex abdominal contractions (i.e. the visceromotor response) observed within each distension period.
The visceromotor behavioral response to colorectal distension was measured by counting the number of abdominal contractions recorded by a strain gauge sutured onto the abdominal musculature as previously described Gunter et al., referenced above. Colorectal distensions were carried out utilizing a 5 cm latex balloon catheter inserted into the colon via the anal canal. Constant pressure tonic distensions were performed in a graded manner, i.e., the pressure was increased to the desired level of 15, 30, or 60 mmHg and then maintained for a period of 10 minutes during which the number of abdominal contractions were recorded to measure the level of colonic sensation. Ten minute recovery periods were allowed following each distension.

[4] = tested on: stress-induced accelerated colonic transit; assay: Water avoidance stress (WAS) model of increased colonic transit, fecal pellet output; type: in vivo, rat; conditions: 3, 10 or 30 mg/kg i.p.
Excerpt: At the end of the 1-hour stress period, the fecal pellets were counted and recorded. WAS causes an acceleration of colonic transit, which can be quantified by counting the number of fecal pellets, produced during the stress procedure. Rats were placed for 1-hour into a stress chamber onto a raised platform 7.5 cm×7.5 cm×9 cm (L×W×H) in the center of a stress chamber filled with room temperature water 8 cm in depth. The stress chamber was constructed from a rectangular plastic tub (40.2×60.2×31.2 cm). […] Ondansetron was supplied from APIN Chemicals LTD. […] MCI-225 was provided by Mitsubishi Pharma Corp. All drugs were dissolved in a vehicle of 100% propylene glycol (1,2-propanediol) by sonicating for a period of 10 minutes. Propylene glycol was obtained from Sigma Chemical Co. […] All drugs and the vehicle were administered as an i.p. injection in a volume of 0.2 mL.

[5] = tested on: small intestinal transit; assay: Small Intestinal Transit Rodent Model (charcoal meal); type: in vivo, rat; conditions: for Small intestinal transit, Mean (% of total length): 15 min test period
Method: Following an overnight fast, rats were brought to the laboratory in their home cages and received an i.p. injection of one of the following: […] Control rats received no treatment. The treated rats were placed back in the home cages and after 30 min, were fed a 2 mL charcoal meal via an oral gavage. Small intestinal transit was measured following 15 min test-period. Each rat was placed briefly in a glass chamber with IsoFlo for anesthesia and sacrificed. The stomach and the small intestine were removed and the total length of the small intestine was measured. Transit was then measured as the distance that the charcoal meal had traveled along the small intestine and expressed as % of the total length. Animals were randomly assigned to experimental groups and experiments were performed as illustrated in Table 11. Small intestinal transit in rats was investigated by the passage of a charcoal meal along the small intestine during a defined time period (15-min). The animals were deprived of food for 12-16 hrs prior to the experiments. Rats were given a charcoal meal (a mixture of charcoal, gum arabic, and distilled water) as a 2 mL oral gavage and were sacrificed after a 15-min test period. The distance traveled by the charcoal meal was quantified as a percent of the small intestinal length, using the following equation: Transit (%)=cm traveled by meal/cm total small intestinal length×100 […]

[6] = tested on: retching and vomiting induced by cisplatin; assay: Cisplatin-induced emesis in the ferret; type: in vivo, ferret (Mustela putorius furo)
Method: Following administration of the cisplatin and either MCI-225, ondansetron or vehicle alone, the occurrence of retching and vomiting was monitored for a period of 6 hours. […] Vomiting was defined as the forceful oral expulsion of upper gastrointestinal contents. The latency of the retching or vomiting response and the number of episodes were recorded for each animal and summarized for each experimental group (Wright et al., Infect. […] Following one hour of acclimation to the observation cage, ferrets received an intraperitoneal (i.p.) injection of cisplatin (5 mg/kg in 5 mL) followed in about 2 minutes by i.p. injection of a single dose of MCI-225 or ondansetron (Rudd and Naylor, Eur. J. Pharmacol., 322: 79-82 (1997)). […] Each animal received a single-dose drug treatment. In addition, three animals received an initial dose (30 mg/kg i.p.) and a second MCI-225 injection (30 mg/kg i.p.) 180 minutes following the initial dose. […] All groups were randomized.

[7] = 30 mg/kg b.i.d, second dose 180 minutes after the first

For “4-(2-fluorophenyl)-6-methyl-2-(piperazin-1-yl)thieno[2,3-d]pyrimidine hydrochloride [MCI-225]”, the “Bladder capacity versus AA/Veh 3” value ([1]; 10 mg/kg, p<0.05 Dunn's test) was “significantly higher than AA/Veh 3”, the “Bladder capacity versus AA/Veh 3” value ([1]; 30 mg/kg, p<0.001 Dunn's test) was “significantly higher than AA/Veh 3” and the Bladder capacity ([1]; 3-30 mg/kg, n=8, p=0.0005 by Friedman test) was “dose-dependent increase”. The “Bladder capacity following acetic acid irritation” value [2] was “significant dose-dependent increase”, the “Number of abdominal contractions in response to colorectal distension, compared to the vehicle” value ([3]; 10 mg/kg i.p., 15, 30 and 60 mmHg) was “significant decrease” and the “Effect on visceromotor response relative to lower dose” value ([3]; 30 mg/kg i.p.) was “less effective”. The “Animals in which the visceromotor response to CRD was eliminated” value ([3]; 30 mg/kg i.p., n=6) was 50 % of the animals, the “WAS-induced fecal pellet output during 1 hour” value [4] was “significant dose-dependent inhibition” and the “Small intestinal transit, Mean (% of total length)” value ([5]; 3 mg/kg i.p.) was 30.1%. The “Small intestinal transit, Mean (% of total length)” value ([5]; 10 mg/kg i.p., hydrochloride) was 4.2±2.6% and 4.2%, the “Small intestinal transit, Mean (% of total length)” value ([5]; 30 mg/kg i.p.) was 8.8% and the “Effect on small intestinal transit compared to the vehicle” value ([5]; 3, 10 or 30 mg/kg i.p.) was “dose-dependent inhibition”. The “Latency” value ([6]; 1 mg/kg i.p.) was 186 ± 35 min, the “Retches (360 min)” value ([6]; 1 mg/kg i.p.) was 30.4 ± 9.1 and the “Total Events” value ([6]; 1 mg/kg i.p.) was 32.9 ± 9.8. The “Vomits (360 min)” value ([6]; 1 mg/kg i.p.) was 2.5 ± 0.7, the “Latency” value ([6]; 10 mg/kg i.p.) was 192 ± 57 min and the “Retches (360 min)” value ([6]; 10 mg/kg i.p.) was 22.9 ± 10.3. The “Total Events” value ([6]; 10 mg/kg i.p.) was 25.5 ± 11.1, the “Vomits (360 min)” value ([6]; 10 mg/kg i.p.) was 2.6 ± 1.0 and the “Latency” value [6, 7] was 360 ± 0 min. The “Retches (360 min)” value [6, 7] was 0.0 ± 0.0, the “Total Events” value [6, 7] was 0.0 ± 0.0 and the “Vomits (360 min)” value [6, 7] was 0.0 ± 0.0. For the same substance, the “Latency” value ([6]; 30 mg/kg i.p.) was 287 ± 38 min, the “Retches (360 min)” value ([6]; 30 mg/kg i.p.) was 3.3 ± 2.2 and the “Total Events” value ([6]; 30 mg/kg i.p.) was 4.0 ± 2.6. The “Vomits (360 min)” value ([6]; 30 mg/kg i.p.) was 0.7 ± 0.5, the “Retches and vomits induced by cisplatin” value ([6]; 1, 10 or 30 mg/kg i.p.) was “dose-dependent reduction” and the Emetic response ([6]; two doses of 30 mg/kg, b.i.d at a 180-min interval) was “eliminated”.
